Assay results taken from patent publication US20220288207A1, “PHOTO INDUCED CONTROL OF PROTEIN DESTRUCTION” (Beth Israel Deaconess Medical Center, Inc., priority 2019, published 2022).
Entries after “also recorded” stand apart in the source; their conditions may differ.

Legend:
BRD2 and BRD3 = assay: In vivo ubiquitination assay of BRD2 and BRD3 by CRBN in HEK293T cells (Ni-NTA pull down); type: cell-based, Human
Description: (§1) Denatured in vivo ubiquitination assays were performed as described in H. Inuzuka et al., Cell 150 (2012): 179, hereby incorporated by reference in its entirety and specifically in relation to ubiquitination assays. Briefly, HEK293T cells were transfected with Flag-CRBN, His-ubiquitin and HA-IKZF1 or GFP-BRD2 or GFP-BRD3. 24 hours after transfection, pomalidomide, opto-pomalidomide, dBET1 or opto-dBET1 were added to the cell culture together with 10 μM MG132 for 12 hours and cells were harvested in denatured buffer A (6 M guanidine-HCl, pH 8.0, 0.1 M Na2HPO4/NaH2PO4, 10 mM imidazole). After sonication, the ubiquitinated proteins were purified by incubation with Ni-NTA matrices for 3 hours at room temperature. The pull-down products were washed sequentially twice in buffer A, twice in buffer ANTI mixture (buffer A: buffer TI=1:3) and once in buffer TI (25 mM Tris-HCl, pH 6.8, 20 mM imidazole). The poly-ubiquitinated proteins were separated by SDS-PAGE for immunoblot analysis.

BRD3/4 = BRD3/4 degradation, immunoblot of 293FT cells; type: cell-based, Human
Description: (§2) Human embryonic kidney 293T (HEK293T) cells and HEK293FT were maintained in Dulbecco's Modified Eagle's Medium (DMEM) containing 10% fetal bovine serum (FBS), 100 Units of penicillin and […] streptomycin. MM.1S, MT2, C4-2, NCI-H2228 and NCI-H3122 cells were cultured in RPMI1640 containing 10% fetal bovine serum (FBS), 100 Units of penicillin and 100 μg/ml streptomycin. 293FT^CRBN+/+, 293FT^CRBN+/+ , MM.1S^CRBN+/+ and MM.1S^CRBN−/− cells were provided Dr. William G. Kaelin (Dana-Farber Cancer Institute). For UVA irradiation, cells were pretreated with opto-PROTACs for 2-4 hours, and then subjected to UVA irradiation for indicated durations.
(§3) Cells were lysed in EBC lysis buffer (50 mM Tris pH 7.5, 120 mM NaCl, 0.5% NP-40), supplemented with protease inhibitors (cOmplete Mini, Roche) and phosphatase inhibitors (phosphatase inhibitor cocktail set I and II, Calbiochem). The protein concentrations of the lysates were measured using the Bio-Rad protein assay reagent on a Beckman Coulter DU-800 spectrophotometer. The lysates were then resolved by sodium dodecylsulfate-polyacrylamide gel ectrophoresis (SDS-PAGE) and immunoblotted with indicated antibodies. For immunoprecipitation, 1 mg lysates were incubated with the appropriate sepharose beads for 4 h at 4° C. Immuno-complexes were washed four times with NETN lysis buffer (20 mM Tris, pH 8.0, 100 mM NaCl, 1 mM EDTA and 0.5% NP-40) before being resolved by SDS-PAGE and immunoblotted with indicated antibodies.

HEK293FT cells = assay: CCK-8 cell viability assay, HEK293FT cells; type: cell-based, Human
Description: as §2
(§4) Cell in 96-well plates were incubated with 10 ul/well of CCK-8 solution and incubated for 2 hours, followed by the measurement of optical density using a microplate reader with a 450 nm filter (O.D. 450).

C4-2 cells = assay: CCK-8 cell viability assay, C4-2 cells; type: cell-based
Description: as §2, §4

[1] = Uncaging (photolysis) by UVA irradiation in vitro, UV-VIS absorption / UPLC-MS analysis; type: physicochemical; settings: 1 mM, UVA 365 nm, time course
Description: HPLC spectra were acquired using an Agilent 1200 Series system with DAD detector for all the intermediates and Opto-PROTACs below. Chromatography was performed on a 2.1×150 mm Zorbax 300SB-C18 5 μm column with water containing 0.1% formic acid as solvent A and acetonitrile containing 0.1% formic acid as solvent B at a flow rate of 0.4 ml/min. The gradient program was as follows: 1% B (0-1 min), 1-99% B (1-4 min), and 99% B (4-8 min). High-resolution mass spectra (FIRMS) data were acquired in positive ion mode using an Agilent G1969A API-TOF with an electrospray ionization (ESI) source. Nuclear Magnetic Resonance (NMR) spectra were acquired on a Bruker DRX-600 spectrometer with 600 MHz for proton (^1H NMR) and 151 MHz for carbon (^13C NMR); chemical shifts are reported in (δ). Preparative HPLC was performed on Agilent Prep 1200 series with UV detector set to 254 nm. Samples were injected onto a Phenomenex Luna 250×30 mm, 5 μm, C18 column at room temperature. The flow rate was 40 ml/min. A linear gradient was used with 10% of acetonitrile (A) in H2O (with 0.1% TFA) (B) to 100% of acetonitrile (A). HPLC was used to establish the purity of target compounds. All final compounds had >95% purity using the HPLC methods described above.
(§5) UV-Vis spectrometry was performed on a NanoDrop-2000 UV-Visible Spectrophotometer. Pomalidomide, opto-pomalidomide, dBET1, opto-dBET1, dALK and opto-dALK were dissolved in DMSO and diluted to indicated concentration, followed by UVA irradiation for indicated duration of time. Then the samples were subjected to UV-Vis spectrometry analysis. Pomalidomide and opto-pomalidomide mixture solutions were made with the indicated ratio. Absorption values at 364 nm were measured to draw standard curve. dBET1 and opto-dBET1 mixture solution were made with the indicated ratios. Absorption values at 340 nm were measured to draw standard curve. dALK and opto-dALK mixture solution were made with indicated ratio. Absorption values at 370 nm were measured to draw standard curve.

NCI-H2228 cells = assay: CCK-8 cell viability assay, NCI-H2228 cells; type: cell-based
Description: as §2, §4

NCI-H3122 cells = assay: CCK-8 cell viability assay, NCI-H3122 cells; type: cell-based
Description: as §2, §4

[2] = UV-VIS absorption spectrum; type: physicochemical; settings: in DMSO
Description: as §5

CRBN and IKZF1 = biological target: T1, CRBN and IKZF1 (Homo sapiens, UniProt Q13422+Q96SW2); assay: CRBN-IKZF1 interaction, Flag-IP and immunoblot in HEK293T cells; type: cell-based; settings: without UVA irradiation, 10 μM MG132 12 hours
T1 construct: expressed in transfected cells; host or cells: HEK293T
T1 sequence (Q96SW2 whole entry): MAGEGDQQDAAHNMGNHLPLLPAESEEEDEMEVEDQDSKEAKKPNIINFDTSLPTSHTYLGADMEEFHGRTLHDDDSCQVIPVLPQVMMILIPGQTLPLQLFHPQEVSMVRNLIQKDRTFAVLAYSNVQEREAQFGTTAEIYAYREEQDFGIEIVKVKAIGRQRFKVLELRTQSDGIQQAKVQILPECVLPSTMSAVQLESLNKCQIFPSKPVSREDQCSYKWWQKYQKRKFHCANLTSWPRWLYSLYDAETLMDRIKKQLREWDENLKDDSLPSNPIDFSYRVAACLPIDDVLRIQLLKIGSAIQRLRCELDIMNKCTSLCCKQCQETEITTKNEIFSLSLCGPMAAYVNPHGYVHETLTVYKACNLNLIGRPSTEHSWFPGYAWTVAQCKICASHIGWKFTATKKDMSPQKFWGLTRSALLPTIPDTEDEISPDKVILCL
T1 sequence (Q13422 whole entry): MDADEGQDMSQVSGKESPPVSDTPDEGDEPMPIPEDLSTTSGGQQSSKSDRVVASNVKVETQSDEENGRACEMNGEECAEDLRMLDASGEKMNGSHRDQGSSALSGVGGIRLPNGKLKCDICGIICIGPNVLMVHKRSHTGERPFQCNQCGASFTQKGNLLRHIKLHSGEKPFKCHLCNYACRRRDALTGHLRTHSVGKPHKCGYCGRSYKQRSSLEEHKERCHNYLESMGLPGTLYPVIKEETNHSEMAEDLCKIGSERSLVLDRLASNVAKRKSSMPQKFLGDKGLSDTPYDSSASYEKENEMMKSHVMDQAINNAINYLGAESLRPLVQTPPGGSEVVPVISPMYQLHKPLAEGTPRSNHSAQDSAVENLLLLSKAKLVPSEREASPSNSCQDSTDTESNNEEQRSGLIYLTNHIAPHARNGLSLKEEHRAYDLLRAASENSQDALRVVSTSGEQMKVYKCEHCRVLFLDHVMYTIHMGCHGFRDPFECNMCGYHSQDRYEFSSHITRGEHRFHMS
T1 sequence (Q16531 whole entry partner): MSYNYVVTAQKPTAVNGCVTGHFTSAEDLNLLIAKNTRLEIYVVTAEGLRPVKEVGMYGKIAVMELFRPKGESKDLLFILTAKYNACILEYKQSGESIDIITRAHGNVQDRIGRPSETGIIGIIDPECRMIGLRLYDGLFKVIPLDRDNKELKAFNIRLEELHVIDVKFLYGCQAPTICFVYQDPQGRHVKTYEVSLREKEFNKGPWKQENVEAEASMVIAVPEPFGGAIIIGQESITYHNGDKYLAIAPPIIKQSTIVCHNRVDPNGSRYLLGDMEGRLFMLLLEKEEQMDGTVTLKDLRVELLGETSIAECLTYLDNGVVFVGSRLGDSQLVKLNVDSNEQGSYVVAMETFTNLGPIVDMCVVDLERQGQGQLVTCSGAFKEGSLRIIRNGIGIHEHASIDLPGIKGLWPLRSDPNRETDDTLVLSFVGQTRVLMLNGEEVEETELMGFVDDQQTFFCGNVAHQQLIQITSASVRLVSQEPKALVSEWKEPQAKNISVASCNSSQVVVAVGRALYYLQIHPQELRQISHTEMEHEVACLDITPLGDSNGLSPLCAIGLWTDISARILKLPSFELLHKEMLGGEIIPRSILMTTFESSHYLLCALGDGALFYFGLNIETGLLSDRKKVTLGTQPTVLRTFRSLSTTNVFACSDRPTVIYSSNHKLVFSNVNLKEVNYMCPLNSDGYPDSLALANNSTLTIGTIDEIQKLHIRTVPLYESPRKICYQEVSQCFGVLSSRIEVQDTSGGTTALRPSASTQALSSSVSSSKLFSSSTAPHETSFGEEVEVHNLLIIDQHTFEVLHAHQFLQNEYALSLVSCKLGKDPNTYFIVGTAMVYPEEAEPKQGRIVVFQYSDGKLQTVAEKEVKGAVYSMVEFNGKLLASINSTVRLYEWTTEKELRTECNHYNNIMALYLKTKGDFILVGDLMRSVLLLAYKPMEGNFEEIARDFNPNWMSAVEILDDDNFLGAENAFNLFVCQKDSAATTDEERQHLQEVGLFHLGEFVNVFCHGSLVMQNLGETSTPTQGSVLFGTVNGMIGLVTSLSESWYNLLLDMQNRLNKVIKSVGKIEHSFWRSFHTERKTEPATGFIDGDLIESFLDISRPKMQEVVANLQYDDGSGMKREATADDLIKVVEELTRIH
Description: (§6) MM.1S, MT2, C4-2, NCI-H2228 and NCI-H3122 cells were cultured in RPMI1640 containing 10% fetal bovine serum (FBS), 100 Units of penicillin and 100 μg/ml streptomycin. […] For UVA irradiation, cells were pretreated with opto-PROTACs for 2-4 hours, and then subjected to UVA irradiation for indicated durations.
as §3

IKZF1/3 = IKZF1/3 degradation, immunoblot of MM1S cells; type: cell-based; settings: MM1S-CRBN+/+ vs. MM1S-CRBN−/− cells, 12 hours, without UVA irradiation; opto-drug up to 10-fold excess
Description: as §6, §3

MM1S cells = assay: CCK-8 cell viability assay, MM1S cells; type: cell-based; settings: MM1S-CRBN+/+ and MM1S-CRBN−/− cells, 72 hours, without UVA irradiation
Description: as §2, §4

IKZF1 = IKZF1 (Homo sapiens, UniProt Q13422+Q96SW2); assay: In vivo ubiquitination assay of IKZF1 by CRBN in HEK293T cells (Ni-NTA pull down); type: cell-based; parameters: expressed in transfected cells; host or cells: HEK293T; settings: without UVA irradiation
Sequence of IKZF1 (Q13422 whole entry): as the sequence (Q13422 whole entry) above
Sequence of IKZF1 (Q96SW2 whole entry): as the sequence (Q96SW2 whole entry) above
Sequence of IKZF1 (Q16531 whole entry partner): as the sequence (Q16531 whole entry partner) above
Description: as §1, with “Briefly,” for “Denatured in vivo ubiquitination assays were performed as described in H. Inuzuka et al., Cell 150 (2012): 179, hereby incorporated by reference in its entirety and specifically in relation to ubiquitination assays. Briefly,”

[3] = 293FT-CRBN+/+ vs. 293FT-CRBN−/− cells, 12 hours, without UVA irradiation
[4] = HEK293FT (293FT-CRBN+/+ and CRBN−/−) cells, without UVA irradiation
[5] = 72 hours, without UVA irradiation
[6] = UVA irradiation (365 nm) 15 minutes

Structure (SMILES): Cc1sc2c(c1C)C(c1ccc(Cl)cc1)=N[C@@H](CC(=O)NCCCCNC(=O)COc1cccc3c1C(=O)N(C1CCC(=O)NC1=O)C3=O)c1nnc(C)n1-2 (some centres unmarked) [dBET1, reference compound]
- ubiquitination of BRD2 and BRD3 by CRBN (BRD2 and BRD3; without UVA irradiation): function as a molecular linker between a protein targeting moiety that recruits bromodomain family members (BRD2/3) (JQ1 derived) and CRBN-mediated ubiquitination
- degradation of BRD3/4 (BRD3/4; [3]): degraded BRD 3/4 in a CRBN-dependent manner
- cell proliferation (CCK-8) (HEK293FT cells; [4]): inhibited cell proliferation in a dose-dependent manner; also recorded: inhibits cell proliferation in 293FT-CRBN^+/+ but not 293FT-CRBN^−/− cells
- cell proliferation (CCK-8) (C4-2 cells; without UVA irradiation): inhibited cell proliferation in a dose-dependent manner

Structure (SMILES): COc1cc(COC(=O)N2C(=O)CCC(N3C(=O)c4cccc(NCCNC(=O)CN5CCC(c6cc(OC(C)C)c(Nc7ncc(Cl)c(Nc8ccccc8S(=O)(=O)C(C)C)n7)cc6C)CC5)c4C3=O)C2=O)c([N+](=O)[O-])cc1OC (centres unmarked) [opto-dALK]
- uncaging (photolysis) by UVA irradiation in vitro [1]: efficiently uncaged by UVA irradiation in vitro
- cell proliferation (CCK-8) (NCI-H2228 cells; [5]): inefficient in inhibiting the proliferation of H2228 (C) or NCI-3122 (D)
- cell proliferation (CCK-8) (NCI-H2228 cells; [6]): required prior uncaging by UVA irradiation; also recorded: inhibits H2228 (E) or NCI-3122 (F) cell proliferation in a dose-dependent manner
- cell proliferation (CCK-8) (NCI-H3122 cells; [5]): inefficient in inhibiting the proliferation of H2228 (C) or NCI-3122 (D)
- cell proliferation (CCK-8) (NCI-H3122 cells; [6]): required prior uncaging by UVA irradiation; also recorded: inhibits H2228 (E) or NCI-3122 (F) cell proliferation in a dose-dependent manner

Structure (SMILES): COc1cc(COC(=O)N2C(=O)CCC(N3C(=O)c4cccc(OCC(=O)NCCCCNC(=O)C[C@@H]5N=C(c6ccc(Cl)cc6)c6c(sc(C)c6C)-n6c(C)nnc65)c4C3=O)C2=O)c([N+](=O)[O-])cc1OC (some centres unmarked) [opto-dBET1]
- uncaging (photolysis) by UVA irradiation in vitro [1]: efficiently uncaged by UVA irradiation in vitro
- ubiquitination of BRD2 and BRD3 by CRBN (BRD2 and BRD3; UVA irradiation (365 nm) 15 min): regained its ability to promote ubiquitination of BRDs in cells
- ubiquitination of BRD2 and BRD3 by CRBN (BRD2 and BRD3; without UVA irradiation): incapable of guiding the ubiquitination of BRD2 and BRD3
- degradation of BRD3/4 (BRD3/4; [3]): largely inert and incapable of degrading BRD3/4
- degradation of BRD3/4 (BRD3/4; HEK293FT cells, UVA irradiation (365 nm) 5 or 15 minutes): leading to the degradation of BRD3/4
- cell proliferation (CCK-8) (HEK293FT cells; [4]): relatively less toxic; also recorded: did not inhibit cell proliferation in 293FT-CRBN^+/+ and 293FT-CRBN^−/− cells
- cell proliferation (CCK-8) (HEK293FT cells; HEK293FT cells, UVA irradiation (365 nm) 15 minutes): could be activated by UVA irradiation to suppress cell proliferation; also recorded: inhibits HEK293FT (J) and C4-2 (K) cell proliferation in a dose-dependent manner
- cell proliferation (CCK-8) (C4-2 cells; [6]): could be activated by UVA irradiation to suppress cell proliferation; also recorded: inhibits HEK293FT (J) and C4-2 (K) cell proliferation in a dose-dependent manner
- cell proliferation (CCK-8) (C4-2 cells; without UVA irradiation): relatively less toxic

Structure (SMILES): Nc1cccc2c1C(=O)N(C1CCC(=O)NC1=O)C2=O (centres unmarked) [pomalidomide, reference compound]
- maximum in absorption of UV-VIS absorption spectrum [2]: 390 nm
- interaction between CRBN and IKZF1 (CRBN and IKZF1): bound both CRBN and IKZF1/3
- degradation of IKZF1/3 (IKZF1/3): induced IKZF1/3 degradation in a CRBN-dependent manner
- cell proliferation (CCK-8) (MM1S cells): reduces MM1S cell proliferation in a CRBN-dependent manner
- ubiquitination of IKZF1 by CRBN (IKZF1): subsequently transfer the ubiquitin chain onto the target proteins, IKZFs
